Test results from US12291518B2, “Thyroid hormone receptor agonists and use thereof” (Eccogene Inc., priority 2020, dated 2025).
Where two headings read alike, the source gives them in different places.

Assays:
THR beta-LBD = biological target: T1, THR beta-LBD (Homo sapiens, UniProt P10828); experiment: THR-β Coactivator Peptide Recruitment Assay (LanthaScreen TR-FRET); assay type: biochemical
T1 construct: THR beta-LBD (the final concentration is 0.5 nM) was added to the 384-well assay plate; purchased Invitrogen PV4686
T1 sequence (P10828 217-461 limits assumed): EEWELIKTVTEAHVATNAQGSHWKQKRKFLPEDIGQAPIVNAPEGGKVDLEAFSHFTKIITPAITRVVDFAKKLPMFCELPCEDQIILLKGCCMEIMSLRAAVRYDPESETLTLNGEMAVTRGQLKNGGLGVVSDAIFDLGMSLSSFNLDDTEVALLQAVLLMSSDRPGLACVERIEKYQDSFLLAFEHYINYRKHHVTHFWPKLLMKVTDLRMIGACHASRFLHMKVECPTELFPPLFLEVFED
Description: (§1) A time-resolved FRET (TR-FRET) assay was used to test representative compounds of the application.
(§2) THR-β Coactivator Peptide Recruitment Assay were conducted by using Invitrogen's LanthaScreen™ TR-FRET Thyroid Receptor beta Assay Kit (Catalog no. PV4686). Binding of an agonist to the nuclear receptor causes a subsequent binding of a coactivator peptide, resulting in fluorescence energy transfer from the labelled nuclear receptor to the proximal coactivator peptide, which reflects the binding affinity of the agonist and the nuclear receptor. The assay was conducted by following the manufacturer's instructions. Briefly, THR beta-LBD (the final concentration is 0.5 nM) was added to the 384-well assay plate containing test compounds, followed by addition of Fluorescein-SRC2-2 coactivator peptide and terbium (Tb)-labeled anti-GST antibody. The final concentration of THR beta-LBD, Fluorescein-SRC2-2 coactivator peptide and terbium (Tb)-labeled anti-GST antibody is 0.5 nM, 0.1 nM and 2 nM, respectively. After a gentle mix and incubation at room temperature for 2 h, the signal was read on the EnVision Multilabel Plate Reader at wavelengths of 520 nm and 495 nm. TR-FRET ratio was calculated by dividing the emission signal at 520 nm and the emission signal at 495 nm, and then was plotted against a sigmoidal dose response curve (four parameters, GraphPad™ Prism 8) to determine the EC50 value.

THR alpha-LBD = biological target: T2, THR alpha-LBD (Homo sapiens, UniProt P10827); experiment: THR-α Coactivator Peptide Recruitment Assay (LanthaScreen TR-FRET); assay type: biochemical
T2 construct: except that THR alpha-LBD of a final concentration 0.25 nM was used; purchased Invitrogen PV4687
T2 sequence (P10827 163-410 isoform P10827-2 limits assumed, other chains not shown): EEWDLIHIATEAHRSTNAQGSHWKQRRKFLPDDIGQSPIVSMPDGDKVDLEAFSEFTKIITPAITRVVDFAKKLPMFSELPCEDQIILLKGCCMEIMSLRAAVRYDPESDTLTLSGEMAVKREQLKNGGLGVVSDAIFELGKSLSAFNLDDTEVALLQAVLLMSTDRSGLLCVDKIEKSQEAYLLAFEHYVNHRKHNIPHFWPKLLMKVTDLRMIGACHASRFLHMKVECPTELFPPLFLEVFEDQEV
Description: as §1, §2
THR-α Coactivator Peptide Recruitment Assay were conducted by using Invitrogen's LanthaScreen™ TR-FRET Thyroid Receptor alpha Assay Kit (Catalog no. PV4687), following the same method described above except that THR alpha-LBD of a final concentration 0.25 nM was used.

[1] = TR-FRET coactivator recruitment, THR beta-LBD 0.5 nM
[2] = TR-FRET coactivator recruitment, THR beta-LBD 0.5 nM, read-out: THRβ EC50
[3] = TR-FRET coactivator recruitment, THR alpha-LBD 0.25 nM
[4] = TR-FRET coactivator recruitment, THR alpha-LBD 0.25 nM, read-out: THRα EC50

THRβ Emax (THR beta-LBD; [1]) | EC50 (THR beta-LBD; [2]) [nM] | THRα Emax (THR alpha-LBD; [3]) | EC50 (THR alpha-LBD; [4]) [nM] | Compound | EC50 (THR beta-LBD) [nM] | EC50 (THR alpha-LBD) [nM]
B (75~90) | < 2 | A (85~110) | 2 to 200 | O=c1[nH]c(=O)n(-c2cc(Cl)c(Oc3ccc(O)c(S(=O)(=O)N4CCC(O)CC4)c3)c(Cl)c2)nc1C(F)F [Compound 16, 2-(3,5-dichloro-4-(4-hydroxy-3-((4-hydroxypiperidin-1-yl)sulfonyl)phenoxy)phenyl)-6-(difluoromethyl)-1,2,4-triazine-3,5(2H,4H)-dione] |  | 
A (90~110) | < 2 | A (85~110) | 2 to 200 | N#CC1(NS(=O)(=O)c2cc(Oc3c(Cl)cc(-n4nc(C(F)F)c(=O)[nH]c4=O)cc3Cl)ccc2O)CC1 [Compound 17, N-(1-cyanocyclopropyl)-5-(2,6-dichloro-4-(6-(difluoromethyl)-3,5-dioxo-4,5-dihydro-1,2,4-triazin-2(3H)-yl)phenoxy)-2-hydroxybenzenesulfonamide] |  | 
B (75~90) | 2 to 20 | B (40~85) | 200 to 1000 | O=c1[nH]c(=O)n(-c2cc(Cl)c(Oc3ccc(O)c(S(=O)(=O)N[C@H]4C[C@H](C(=O)NC5CC5)C4)c3)c(Cl)c2)nc1C(F)F [Compound 18] |  | 
A (90~110) | < 2 | A (85~110) | 2 to 200 | O=c1[nH]c(=O)n(-c2cc(Cl)c(Oc3ccc(O)c(S(=O)(=O)NC4CC4)c3)c(Cl)c2)nc1C(F)(F)F [Compound 19, N-cyclopropyl-5-[2,6-dichloro-4-[3,5-dioxo-6-(trifluoromethyl)-1,2,4-triazin-2-yl]phenoxy]-2-hydroxy-benzenesulfonamide] |  | 
A (90~110) | 2 to 20 | A (85~110) | 2 to 200 | CNS(=O)(=O)c1cc(Oc2c(Cl)cc(-n3nc(C(F)(F)F)c(=O)[nH]c3=O)cc2Cl)ccc1O [Compound 20, 5-(2,6-dichloro-4-(3,5-dioxo-6-(trifluoromethyl)-4,5-dihydro-1,2,4-triazin-2(3H)-yl)phenoxy)-2-hydroxy-N-methylbenzenesulfonamide] |  | 
A (90~110) | 2 to 20 | B (40~85) | 2 to 200 | O=c1[nH]c(=O)n(-c2cc(Cl)c(Oc3ccc(O)c(S(=O)(=O)N4CCC(F)(F)CC4)c3)c(Cl)c2)nc1C(F)(F)F [Compound 21, 2-(3,5-dichloro-4-(3-((4,4-difluoropiperidin-1-yl)sulfonyl)-4-hydroxyphenoxy)phenyl)-6-(trifluoromethyl)-1,2,4-triazine-3,5(2H,4H)-dione] |  | 
B (75~90) | 2 to 20 | B (40~85) | 200 to 1000 | CNC(=O)C1(NS(=O)(=O)c2cc(Oc3c(Cl)cc(-n4nc(C(F)F)c(=O)[nH]c4=O)cc3Cl)ccc2O)CC1 [Compound 22, 1-[[5-[2,6-dichloro-4-[6-(difluoromethyl)-3,5-dioxo-1,2,4-triazin-2-yl]phenoxy]-2-hydroxy-phenyl]sulfonylamino]-N-methyl-cyclopropane carboxamide] |  | 
A (90~110) | < 2 | A (85~110) | 2 to 200 | NC(=O)C1(NS(=O)(=O)c2cc(Oc3c(Cl)cc(-n4nc(C(F)F)c(=O)[nH]c4=O)cc3Cl)ccc2O)CC1 [Compound 24, 1-[[5-[2,6-dichloro-4-[6-(difluoromethyl)-3,5-dioxo-1,2,4-triazin-2-yl]phenoxy]-2-hydroxy-phenyl]sulfonylamino]cyclopropanecarboxamide] |  | 
B (75~90) | 20 to 100 | C (<40) | > 1000 | CNC(=O)C1(N[S@SP3](=O)(=O)c2cc(Oc3c(Cl)cc(-n4nc(C(F)(F)F)c(=O)[nH]c4=O)cc3Cl)ccc2O)CC1 [Compound 25, 1-((5-(2,6-dichloro-4-(3,5-dioxo-6-(trifluoromethyl)-4,5-dihydro-1,2,4-triazin-2(3H)-yl)phenoxy)-2-hydroxyphenyl)sulfonamido)-N-methylcyclopropane-1-carboxamide] |  | 
B (75~90) | < 2 | A (85~110) | < 2 | O=c1[nH]c(=O)n(-c2cc(Cl)c(Oc3ccc(O)c(S(=O)(=O)N4CCC(F)(F)CC4)c3)c(Cl)c2)nc1C(F)F [Compound 27, 2-[3,5-dichloro-4-[3-[(4,4-difluoro-1-piperidyl)sulfonyl]-4-hydroxy-phenoxy]phenyl]-6-(difluoromethyl)-1,2,4-triazine-3,5-dione] |  | 
B (75~90) | < 2 | A (85~110) | < 2 | O=c1[nH]c(=O)n(-c2cc(Cl)c(Oc3ccc(O)c(S(=O)(=O)N4CCC4)c3)c(Cl)c2)nc1C(F)F [Compound 28, 2-(4-(3-(azetidin-1-ylsulfonyl)-4-hydroxyphenoxy)-3,5-dichlorophenyl)-6-(difluoromethyl)-1,2,4-triazine-3,5(2H,4H)-dione] |  | 
A (90~110) | < 2 | A (85~110) | 2 to 200 | O=c1[nH]c(=O)n(-c2cc(Cl)c(Oc3ccc(O)c(S(=O)(=O)N[C@H]4CCOC4)c3)c(Cl)c2)nc1C(F)F [Compound 29, (S)-5-(2,6-dichloro-4-(6-(difluoromethyl)-3,5-dioxo-4,5-dihydro-1,2,4-triazin-2(3H)-yl)phenoxy)-2-hydroxy-N-(tetrahydrofuran-3-yl)benzenesulfonamide] |  | 
A (90~110) | < 2 | A (85~110) | < 2 | O=c1[nH]c(=O)n(-c2cc(Cl)c(Oc3ccc(O)c(S(=O)(=O)N[C@@H]4CCOC4)c3)c(Cl)c2)nc1C(F)F [Compound 30, (R)-5-(2,6-dichloro-4-(6-(difluoromethyl)-3,5-dioxo-4,5-dihydro-1,2,4-triazin-2(3H)-yl)phenoxy)-2-hydroxy-N-(tetrahydrofuran-3-yl)benzenesulfonamide] |  | 
C (<75) | 2 to 20 | B (40~85) | 2 to 200 | O=c1[nH]c(=O)n(-c2cc(Cl)c(Oc3ccc(O)c(S(=O)(=O)N4CCNCC4)c3)c(Cl)c2)nc1C(F)F [Compound 31, 2-(3,5-dichloro-4-(4-hydroxy-3-(piperazin-1-ylsulfonyl)phenoxy)phenyl)-6-(difluoromethyl)-1,2,4-triazine-3,5(2H,4H)-dione] |  | 
C (<75) | 2 to 20 | C (<40) | 2 to 200 | O=C(C1CC1)N1CCN(S(=O)(=O)c2cc(Oc3c(Cl)cc(-n4nc(C(F)F)c(=O)[nH]c4=O)cc3Cl)ccc2O)CC1 [Compound 32, 2-(3,5-dichloro-4-(3-((4-(cyclopropanecarbonyl)piperazin-1-yl)sulfonyl)-4-hydroxyphenoxy)phenyl)-6-(difluoromethyl)-1,2,4-triazine-3,5(2H,4H)-dione] |  | 
C (<75) | < 2 | B (40~85) | 2 to 200 | CN1CCN(S(=O)(=O)c2cc(Oc3c(Cl)cc(-n4nc(C(F)F)c(=O)[nH]c4=O)cc3Cl)ccc2O)CC1=O [Compound 33, 2-(3,5-dichloro-4-(4-hydroxy-3-((4-methyl-3-oxopiperazin-1-yl)sulfonyl)phenoxy)phenyl)-6-(difluoromethyl)-1,2,4-triazine-3,5(2H,4H)-dione] |  | 
B (75~90) | 2 to 20 | B (40~85) | 2 to 200 | CO[C@H]1C[C@H](NS(=O)(=O)c2cc(Oc3c(Cl)cc(-n4nc(C(F)F)c(=O)[nH]c4=O)cc3Cl)ccc2O)C1 [Compound 36, 5-(2,6-dichloro-4-(6-(difluoromethyl)-3,5-dioxo-4,5-dihydro-1,2,4-triazin-2(3H)-yl)phenoxy)-2-hydroxy-N-((1r,3r)-3-methoxycyclobutyl)benzenesulfonamide] |  | 

Compound | THRβ Emax (THR beta-LBD; [1]) | EC50 (THR beta-LBD; [2]) [nM] | THRα Emax (THR alpha-LBD; [3]) | EC50 (THR alpha-LBD; [4]) [nM] | EC50 (THR beta-LBD) [nM] | EC50 (THR alpha-LBD) [nM]
N#CC1CC(N[S@SP3](=O)(=O)c2cc(Oc3c(Cl)cc(-n4nc(C(F)F)c(=O)[nH]c4=O)cc3Cl)ccc2O)C1 (stereo not drawn) [Compound 26, N-(3-cyanocyclobutyl)-5-[2,6-dichloro-4-[6-(difluoromethyl)-3,5-dioxo-1,2,4-triazin-2-yl]phenoxy]-2-hydroxy-benzenesulfonamide] | A (90~110) |  | A (85~110) |  | < 2 | 2 to 200
